# Measurements published in ChEMBL document CHEMBL1201862, “PubChem BioAssay data set” (2004).
# “And” between values parts separate entries of the source, which are not always exact repeats. Equal values may be shown once. The source made the active and inactive calls.
# What was measured:
# [1] = HPDE-C7 pancreatic duct cell viability loss – fluorescence, HTS (AID 430); format: functional, cell-based; conditions: Homo sapiens
# Bcl-2-related protein A1 [2] = biological target: T1, Bcl-2-related protein A1 (Mus musculus, UniProt Q07440); assay: Bfl-1 binding inhibitors, SAR follow-up, biochemical, fluorescence polarization (AID 1070)
# T1 sequence (Q07440 whole entry): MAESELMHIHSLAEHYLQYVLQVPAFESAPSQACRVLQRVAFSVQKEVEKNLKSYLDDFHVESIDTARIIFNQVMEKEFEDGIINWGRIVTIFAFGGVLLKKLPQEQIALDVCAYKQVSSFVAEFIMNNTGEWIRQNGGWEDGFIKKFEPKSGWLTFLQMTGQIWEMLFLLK
# [3] = biological target: Glyceraldehyde-3-phosphate dehydrogenase (Homo sapiens, UniProt P04406)
# Glyceraldehyde-3-phosphate dehydrogenase, sequence (P04406 whole entry): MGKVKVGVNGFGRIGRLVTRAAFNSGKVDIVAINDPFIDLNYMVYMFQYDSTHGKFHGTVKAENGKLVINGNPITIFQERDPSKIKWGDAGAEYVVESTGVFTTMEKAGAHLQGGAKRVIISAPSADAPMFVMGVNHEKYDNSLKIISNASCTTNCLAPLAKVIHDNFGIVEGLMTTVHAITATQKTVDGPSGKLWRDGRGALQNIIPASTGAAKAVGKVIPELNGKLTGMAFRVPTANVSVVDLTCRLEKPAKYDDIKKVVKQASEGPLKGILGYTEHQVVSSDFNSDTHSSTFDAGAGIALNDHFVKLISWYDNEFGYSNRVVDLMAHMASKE
# [4] = biological target: T2, Heat shock factor protein 1 (Mus musculus, UniProt P38532); assay: enhancement of HSF1-driven luciferase signal – cell-based, NIH3T3, luminescence, dose retest, confirmation (AID 435004); format: functional;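 further: stress induced by proteasome inhibitor MG132 added 30 min after compound; luciferase reporter driven by HSF1 response element in NIH3T3 cells; actives raise luminescence as potentiators of the MG132 stress response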
# T2 sequence (P38532 whole entry): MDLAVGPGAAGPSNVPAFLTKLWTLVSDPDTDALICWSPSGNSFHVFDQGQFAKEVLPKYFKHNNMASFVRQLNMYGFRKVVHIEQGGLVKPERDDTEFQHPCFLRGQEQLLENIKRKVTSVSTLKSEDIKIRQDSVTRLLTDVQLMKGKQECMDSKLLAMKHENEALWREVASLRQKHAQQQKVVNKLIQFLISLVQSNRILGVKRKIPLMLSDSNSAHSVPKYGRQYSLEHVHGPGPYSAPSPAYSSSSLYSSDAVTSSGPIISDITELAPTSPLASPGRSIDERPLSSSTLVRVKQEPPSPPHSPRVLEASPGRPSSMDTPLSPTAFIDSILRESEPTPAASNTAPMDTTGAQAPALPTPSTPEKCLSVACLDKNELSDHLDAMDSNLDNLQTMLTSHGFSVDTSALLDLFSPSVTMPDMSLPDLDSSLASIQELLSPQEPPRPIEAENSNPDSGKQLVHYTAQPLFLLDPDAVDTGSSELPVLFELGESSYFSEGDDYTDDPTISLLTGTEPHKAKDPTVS
# [5] = viability loss of HPDE-C7K cells – cell-based, fluorescence, HTS, primary screen (AID 431); format: functional; conditions: Homo sapiens
# [6] = viability loss in HEK293T cells – cell-based, cherry-picks, cytotoxicity control for HIV Vif inhibitor project, dose response (AID 652208); format: functional
# Bcl-2-related protein A1 [7] = biological target: T1, Bcl-2-related protein A1; assay: displacement of Bid BH3 peptide from Bfl-1 – biochemical, fluorescence polarization, FITC-Bid, mouse, primary screen (AID 432)
# [8] = viability of PTEN-deleted HCT116 cells – cell-based, HCT116 PTEN knockout, dose response (AID 1047); format: functional;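 further: HCT116 colon tumor cells with PTEN knocked out; cells exposed to compound for 60 hours before readout; potency for loss of cell viability measured by luminescence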
# Bcl-2-related protein A1 [9] = biological target: T1, Bcl-2-related protein A1; assay: small-molecule antagonists of Bfl-1/BH3 interaction – biochemical, TR-FRET, mouse Bfl-1, confirmation (AID 621);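 further: TR-FRET binding of GST-Bfl-1 to FITC-labelled Bid peptide via terbium antibody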
# [10] = biological target: T3, Trace amine-associated receptor 1 (Homo sapiens, UniProt Q96RJ0); assay: Counterscreen for antagonists of the human trace amine associated receptor 1 (hTAAR1): Fluorescence-based cell-based high throughput dose response assay to identify TAAR1 Agonists.; format: functional
# T3 sequence (Q96RJ0 whole entry): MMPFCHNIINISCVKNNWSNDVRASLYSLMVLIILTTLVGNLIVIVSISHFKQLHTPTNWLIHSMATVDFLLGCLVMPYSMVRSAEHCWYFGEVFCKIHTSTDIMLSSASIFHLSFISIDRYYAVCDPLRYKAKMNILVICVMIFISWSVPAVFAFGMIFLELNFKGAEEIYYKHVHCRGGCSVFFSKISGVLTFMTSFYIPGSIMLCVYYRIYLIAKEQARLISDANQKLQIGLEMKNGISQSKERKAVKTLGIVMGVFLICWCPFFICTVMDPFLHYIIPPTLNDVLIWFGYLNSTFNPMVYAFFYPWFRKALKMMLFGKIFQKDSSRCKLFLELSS
# [11] = Counterscreen for antagonists of the human trace amine associated receptor 1 (hTAAR1): Fluorescence-based cell-based high throughput dose response assay to identify nonselective Ga16 antagonists.; format: functional
# [12] = Counterscreen for […] of the human trace amine associated receptor 1 (TAAR1): Fluorescence-based cell-based high throughput dose response assay to identify nonselective Ga16 agonists.; format: functional
# [13] = biological target: T3, Trace amine-associated receptor 1; assay: Fluorescence-based cell-based high throughput dose response assay to identify antagonists of the human trace amine associated receptor 1 (TAAR1).; format: functional
# [14] = biological target: SWI/SNF-related matrix-associated actin-dependent regulator of chromatin subfamily A member 2 (Homo sapiens, UniProt P51531); assay: Luminescence-based cell-based high throughput dose response assay to identify activators of the function of SWI/SNF related, matrix associated, actin dependent regulator of chromatin, subfamily a, member 2 (SMARCA2, BRM).; format: functional
# SWI/SNF-related matrix-associated actin-dependent regulator of chromatin subfamily A member 2, sequence (P51531 whole entry): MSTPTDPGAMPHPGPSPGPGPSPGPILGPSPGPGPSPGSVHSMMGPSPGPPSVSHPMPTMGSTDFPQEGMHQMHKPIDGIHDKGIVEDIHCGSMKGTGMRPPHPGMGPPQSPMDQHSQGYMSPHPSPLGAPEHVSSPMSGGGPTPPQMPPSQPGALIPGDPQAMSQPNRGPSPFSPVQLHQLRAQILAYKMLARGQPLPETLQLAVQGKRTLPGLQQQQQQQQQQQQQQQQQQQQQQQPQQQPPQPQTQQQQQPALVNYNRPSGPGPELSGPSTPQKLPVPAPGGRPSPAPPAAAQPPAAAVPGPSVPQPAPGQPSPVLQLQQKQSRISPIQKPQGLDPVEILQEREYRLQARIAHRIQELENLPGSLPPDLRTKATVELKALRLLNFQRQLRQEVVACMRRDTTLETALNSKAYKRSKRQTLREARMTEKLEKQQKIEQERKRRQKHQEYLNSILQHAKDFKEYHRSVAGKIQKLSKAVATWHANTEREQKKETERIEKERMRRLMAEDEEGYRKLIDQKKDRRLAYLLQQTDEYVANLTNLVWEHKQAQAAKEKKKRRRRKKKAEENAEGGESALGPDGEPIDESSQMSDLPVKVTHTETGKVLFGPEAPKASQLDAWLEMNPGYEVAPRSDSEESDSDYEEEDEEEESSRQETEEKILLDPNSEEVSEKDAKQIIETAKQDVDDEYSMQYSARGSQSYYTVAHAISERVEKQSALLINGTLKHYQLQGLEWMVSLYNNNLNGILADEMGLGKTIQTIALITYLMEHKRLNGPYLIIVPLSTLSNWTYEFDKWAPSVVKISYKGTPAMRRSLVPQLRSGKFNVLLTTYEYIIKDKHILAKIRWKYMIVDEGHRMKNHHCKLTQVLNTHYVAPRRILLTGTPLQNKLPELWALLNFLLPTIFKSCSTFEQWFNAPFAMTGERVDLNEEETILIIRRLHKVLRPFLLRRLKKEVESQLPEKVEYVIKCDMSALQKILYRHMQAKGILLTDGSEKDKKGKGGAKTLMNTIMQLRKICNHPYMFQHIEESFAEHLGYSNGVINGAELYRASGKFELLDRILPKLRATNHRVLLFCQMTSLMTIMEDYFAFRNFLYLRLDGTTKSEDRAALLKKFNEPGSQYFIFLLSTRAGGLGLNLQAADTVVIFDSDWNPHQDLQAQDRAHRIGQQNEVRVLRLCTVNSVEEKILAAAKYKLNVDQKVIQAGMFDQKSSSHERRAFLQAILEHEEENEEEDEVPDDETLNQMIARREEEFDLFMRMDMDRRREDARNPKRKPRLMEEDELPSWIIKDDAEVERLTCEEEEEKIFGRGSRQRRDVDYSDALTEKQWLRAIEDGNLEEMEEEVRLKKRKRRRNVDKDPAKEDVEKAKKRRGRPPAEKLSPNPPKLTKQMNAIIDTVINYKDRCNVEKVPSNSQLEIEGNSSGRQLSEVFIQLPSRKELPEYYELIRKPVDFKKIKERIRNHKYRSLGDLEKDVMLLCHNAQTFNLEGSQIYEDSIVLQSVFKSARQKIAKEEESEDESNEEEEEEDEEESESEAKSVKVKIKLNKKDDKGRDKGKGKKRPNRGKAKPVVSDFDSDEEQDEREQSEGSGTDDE
# [15] = biological target: T4, Neuropeptide Y receptor type 1 (Homo sapiens, UniProt P25929); format: functional;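 further: HEK293 cells with a CNG channel challenged with NPY then isoproterenol; potency as antagonist that reverses NPY suppression of cAMP signal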
# T4 sequence (P25929 whole entry): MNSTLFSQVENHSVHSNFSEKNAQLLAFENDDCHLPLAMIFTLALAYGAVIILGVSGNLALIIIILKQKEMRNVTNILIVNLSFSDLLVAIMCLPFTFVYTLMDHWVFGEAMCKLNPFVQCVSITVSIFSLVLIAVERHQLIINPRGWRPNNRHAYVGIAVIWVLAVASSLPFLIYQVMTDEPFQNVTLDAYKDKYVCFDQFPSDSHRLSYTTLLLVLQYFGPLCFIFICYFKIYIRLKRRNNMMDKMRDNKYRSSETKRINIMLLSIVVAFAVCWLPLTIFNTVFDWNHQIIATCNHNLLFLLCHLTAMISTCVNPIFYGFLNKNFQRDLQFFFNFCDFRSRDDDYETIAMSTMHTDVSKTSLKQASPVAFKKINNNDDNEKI
# [16] = biological target: T5, Neuropeptide Y receptor type 2 (Homo sapiens, UniProt P49146); format: functional, cell-based;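 further: HEK293 cells expressing the receptor and a CNG channel; stimulus was NPY near EC95 followed by isoproterenol to raise cAMP; antagonist potency measured as restoring cAMP signal that NPY suppresses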
# T5 sequence (P49146 whole entry): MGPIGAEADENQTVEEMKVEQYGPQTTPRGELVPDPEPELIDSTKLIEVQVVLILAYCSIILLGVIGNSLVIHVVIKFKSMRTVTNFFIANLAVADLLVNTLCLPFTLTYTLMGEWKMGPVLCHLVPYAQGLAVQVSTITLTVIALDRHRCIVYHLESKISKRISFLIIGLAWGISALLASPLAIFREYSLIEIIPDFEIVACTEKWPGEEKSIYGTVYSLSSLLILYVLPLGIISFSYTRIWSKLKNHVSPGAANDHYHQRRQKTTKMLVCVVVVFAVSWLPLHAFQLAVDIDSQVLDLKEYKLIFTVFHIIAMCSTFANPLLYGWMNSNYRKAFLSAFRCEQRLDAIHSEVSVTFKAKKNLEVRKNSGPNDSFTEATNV
# H4 = assay: Luminescence Cell-Based Dose Response HTS to Identify Activators of 5'UTR Stem-Loop Driven Prion Protein mRNA Translation in H4 Neuroglioblastoma Cells. [Related pubchem assays: 1829 (Project Summary), 1814 (Primary HTS)]; format: functional; conditions: Homo sapiens
# [17] = Luminescence Cell-Based Dose Confirmation HTS to Identify Activators of 5'UTR Stem-Loop Driven Alpha-Synuclein mRNA Translation in H4 Neuroglioblastoma Cells. [Related pubchem assays: 1829 (Project Summary), 1814 (Primary HTS)]; format: functional
# cells [18] = format: functional, cell-based
# cells [19] = format: functional, cell-based; remark: listed apart in the source
# [20] = Counterscreen for activators of the function of SWI/SNF related, matrix associated, actin dependent regulator of chromatin, subfamily a, member 2 (SMARCA2, BRM): Luminescence-based cell-based high throughput dose response assay to identify non-selective compounds using the VP16 reporter assay.; format: functional
# [21] = Luminescence Cell-Based Dose Response HTS to Identify Activators of Luciferase Translation or Activity in H4 […] Cells. [Related pubchem assays: 1829 (Project Summary), 1814 (Primary HTS)]; format: functional
# Beta-galactosidase = Beta-galactosidase (Escherichia coli, UniProt Q8VNN2); assay: Dose response counterscreen for EBI2 assay utilizing the enzyme, b-galactosidase.; format: functional
# Beta-galactosidase, sequence (Q8VNN2 whole entry): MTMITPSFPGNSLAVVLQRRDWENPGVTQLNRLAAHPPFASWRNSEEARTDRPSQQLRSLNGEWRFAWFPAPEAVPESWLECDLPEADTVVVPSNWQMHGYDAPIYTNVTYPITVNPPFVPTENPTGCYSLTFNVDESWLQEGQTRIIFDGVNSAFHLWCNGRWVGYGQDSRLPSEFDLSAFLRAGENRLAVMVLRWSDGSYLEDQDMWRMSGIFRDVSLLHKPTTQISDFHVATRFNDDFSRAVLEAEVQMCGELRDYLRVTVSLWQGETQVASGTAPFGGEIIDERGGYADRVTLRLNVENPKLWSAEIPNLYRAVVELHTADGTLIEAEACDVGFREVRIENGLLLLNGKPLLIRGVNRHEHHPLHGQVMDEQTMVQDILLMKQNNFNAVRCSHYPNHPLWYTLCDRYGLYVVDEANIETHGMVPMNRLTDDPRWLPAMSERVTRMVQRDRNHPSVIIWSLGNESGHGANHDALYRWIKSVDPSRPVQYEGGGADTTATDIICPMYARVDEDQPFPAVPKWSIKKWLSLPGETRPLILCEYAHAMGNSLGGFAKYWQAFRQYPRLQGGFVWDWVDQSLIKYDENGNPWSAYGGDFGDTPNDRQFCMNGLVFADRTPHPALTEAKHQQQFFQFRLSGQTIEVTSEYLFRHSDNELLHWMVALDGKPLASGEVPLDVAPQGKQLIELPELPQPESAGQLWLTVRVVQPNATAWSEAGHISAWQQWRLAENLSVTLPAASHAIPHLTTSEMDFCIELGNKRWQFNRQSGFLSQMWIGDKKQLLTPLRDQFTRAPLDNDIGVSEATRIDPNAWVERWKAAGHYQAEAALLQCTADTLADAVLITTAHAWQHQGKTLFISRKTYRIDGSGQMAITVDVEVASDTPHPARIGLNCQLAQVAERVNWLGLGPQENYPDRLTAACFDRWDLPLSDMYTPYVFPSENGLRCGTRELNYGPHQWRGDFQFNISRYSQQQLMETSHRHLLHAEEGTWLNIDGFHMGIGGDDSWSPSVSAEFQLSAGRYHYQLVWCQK
# [22] = general mammalian cell viability loss – inhibitor set, cherry-pick, set 2, cytotoxicity control for miR-122 modulator project, dose response (AID 720697); format: functional, cell-based
# [23] = activation of miR-122 Renilla sensor silencing – cell-based, Huh7 psiCHECK-miR122, Renilla luciferase, cherry-picked, dose response (AID 651956); format: functional;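 further: huh7 hepatoma cells stably carrying a psiCHECK-2 miR-122 sensor plasmid; renilla luciferase signal reporting endogenous miR-122 activity after 48 h compound exposure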
compound,measurement,setting,value
COc1ccc(-c2cc(C(F)(F)F)nc(S(C)(=O)=O)n2)cc1OC,EC50,[1],4.49 µM (active)
same,IC50,Bcl-2-related protein A1 [2],23.2 µM (active)
same,IC50,[3],> 100 µM (not active)
same,EC50,[4],5.47 µM (active)
same,EC50,[5],3.47 µM (active)
same,AC50,[6],13.2 µM (active)
same,IC50,Bcl-2-related protein A1 [7],25.4 µM (active)
same,EC50,[8],32.1 µM (active)
same,IC50,Bcl-2-related protein A1 [9],12.7 µM (active) and 4.51 µM (active)
O=C(CCN1C(=O)C2C3C=CC(C3)C2C1=O)NCCc1ccccc1 (stereo not given),EC50,[10],> 29.9 µM (inactive)
same,IC50,[11],> 29.9 µM (inactive)
same,EC50,[12],> 29.9 µM (inactive)
same,IC50,[13],> 29.9 µM (inactive)
O=c1c2ccccc2nc2c3ccccc3c(NCCN3CCOCC3)nn12,EC50,[14],> 10.1 µM (inactive)
same,IC50,[15],4.38 µM (active)
same,IC50,[16],> 35 µM (not active)
same,EC50,H4,> 120 µM (inconclusive)
same,EC50,[17],> 120 µM (not active)
same,EC50,cells [18],> 350 µM (not active)
same,EC50,cells [19],> 350 µM (not active)
same,EC50,[20],> 91.2 µM (inactive)
same,EC50,[21],18 µM (active)
O=C(/C=C/c1ccc(F)cc1)N1CCN(Cc2ccccc2)CC1,IC50,Beta-galactosidase,> 80 µM (inactive)
C[C@H]1CN([C@@H](C)CO)S(=O)(=O)c2ccc(-c3ccc(C(=O)N(C)C)cc3)cc2O[C@H]1CN(C)C(=O)C1CCC1,AC50,[22],2.2 µM (active)
same,AC50,[23],10.9 µM (active)
